# Results: ChEMBL document CHEMBL1125004, “Chemistry and pharmacology of the non-benzodiazepine anxiolytic enciprazine and related compounds” (1990)
# Active and inactive are the calls of the source. The calls are words filed in the database; no cut-off is given here.
# How the values were obtained:
# [1] = species: Mus musculus; assay: Ataxic activity in mice by rotarod test; Range (64.3-92.1); type: functional
# [2] = system: Mus musculus; assay: Antiaggressive anxiolytic activity in the electroshock-induced fighting test in mice (po); Range (10.32-18.72); type: functional
# [3] = Ratio of ED50 (rotarod) to that of ED50 (fighting); type: functional
# [4] = species: Mus musculus; assay: Effect on alcohol induced sleep was determined in ethanol potentiation test; Range; type: functional
# [5] = species: Mus musculus; assay: Effect on hexobarbital induced sleep was determined in hexobarbital potentiation test; Range; type: functional
# [6] = Ratio of ED50 (ethanol) to that of ED50 (fighting); type: functional
# [7] = Ratio of ED50 (hexobarbital) to that of ED50 (fighting); type: functional
# [8] = system: Rattus norvegicus; assay: Effect on tremor after oral administration of 50 mg/kg in rat was determined; '-' No effect; type: functional, organism-based; design: dose 50 mg/kg
# [9] = system: Rattus norvegicus; assay: Effect on piloerection after oral administration of 100 mg/kg in rat was determined; '-' No effect; type: functional, organism-based; design: dose 100 mg/kg
# [10] = system: Rattus norvegicus; assay: Effect on jumping after oral administration of 50 mg/kg in rat was determined; '-' No effect; type: functional, organism-based; design: dose 50 mg/kg
# [11] = system: Rattus norvegicus; assay: Effect on restlessness after oral administration of 50 mg/kg in rat was determined; '-' No effect; type: functional, organism-based; design: dose 50 mg/kg
# [12] = system: Rattus norvegicus; assay: Effect on salivation after oral administration of 50 mg/kg in rat was determined; '-' No effect; type: functional, organism-based; design: dose 50 mg/kg
# [13] = system: Rattus norvegicus; assay: Effect on diarrheal after oral administration of 50 mg/kg in rat was determined; '-' No effect; type: functional, organism-based; design: dose 50 mg/kg
# [14] = system: Rattus norvegicus; assay: Effect on restlessness after oral administration of 100 mg/kg in rat was determined; '-' No effect; type: functional, organism-based; design: dose 100 mg/kg
# [15] = system: Rattus norvegicus; assay: Effect on diarrheal after oral administration of 100 mg/kg in rat was determined; '-' No effect; type: functional, organism-based; design: dose 100 mg/kg
# [16] = system: Rattus norvegicus; assay: Effect on tremor after oral administration of 100 mg/kg in rat was determined; '-' No effect; type: functional, organism-based; design: dose 100 mg/kg
# [17] = system: Rattus norvegicus; assay: Effect on salivation after oral administration of 100 mg/kg in rat was determined; '-' No effect; type: functional, organism-based; design: dose 100 mg/kg
# [18] = system: Rattus norvegicus; assay: Effect on jumping after oral administration of 100 mg/kg in rat was determined; '-' No effect; type: functional, organism-based; design: dose 100 mg/kg
# [19] = system: Rattus norvegicus; assay: Effect on piloerection after oral administration of 50 mg/kg in rat was determined; '-' No effect; type: functional, organism-based; design: dose 50 mg/kg
# [20] = system: Monkey; assay: Tested for ability to maintain self-administration after administration of 0.03 mg/kg in monkey 3017 Range (1-7); type: functional, Cercopithecidae
# [21] = system: Monkey; assay: Tested for ability to maintain self-administration after administration of 0.003 mg/kg in monkey 2037 Range (2-6); type: functional, Cercopithecidae
# [22] = system: Monkey; assay: Tested for ability to maintain self-administration after administration of 0.3 mg/kg in monkey 3038 (1-2); type: functional, Cercopithecidae
# [23] = system: Monkey; assay: Tested for ability to maintain self-administration after administration of 0.01 mg/kg in monkey 9079 Range (1-3); type: functional, Cercopithecidae
# [24] = system: Monkey; assay: Tested for ability to maintain self-administration after administration of 0.03 mg/kg in monkey 2036 Range (2-3); type: functional, Cercopithecidae
# [25] = system: Monkey; assay: Tested for ability to maintain self-administration after administration of 0.03 mg/kg in monkey 2037 Range (7-9); type: functional, Cercopithecidae
# [26] = system: Monkey; assay: Tested for ability to maintain self-administration after administration of 0.003 mg/kg in monkey 9083 Range (13-21); type: functional, Cercopithecidae
# [27] = system: Monkey; assay: Tested for ability to maintain self-administration after administration of 0.03 mg/kg in monkey 9083 Range (7-11); type: functional, Cercopithecidae
# [28] = system: Monkey; assay: Tested for ability to maintain self-administration after administration of 0.003 mg/kg in monkey 3017 Range (1-2); type: functional, Cercopithecidae
# [29] = system: Monkey; assay: Tested for ability to maintain self-administration after administration of 0.003 mg/kg in monkey 3038 Range (1-7); type: functional, Cercopithecidae
# [30] = system: Monkey; assay: Tested for ability to maintain self-administration after administration of 0.3 mg/kg in monkey 2036 (1-5); type: functional, Cercopithecidae
# [31] = system: Monkey; assay: Tested for ability to maintain self-administration after administration of 0.3 mg/kg in monkey 9083 (1-4); type: functional, Cercopithecidae
# [32] = system: Monkey; assay: Tested for ability to maintain self-administration after administration of 0.03 mg/kg in monkey 3038 Range (1-10); type: functional, Cercopithecidae
# [33] = system: Monkey; assay: Tested for ability to maintain self-administration after administration of 0.3 mg/kg in monkey 9079 (0-2); type: functional, Cercopithecidae
# [34] = system: Monkey; assay: Tested for ability to maintain self-administration after administration of 0.3 mg/kg in monkey 2037 (0-4); type: functional, Cercopithecidae
# [35] = system: Monkey; assay: Tested for ability to maintain self-administration after administration of 0.3 mg/kg in monkey 3017 (0-1); type: functional, Cercopithecidae
# [36] = system: Monkey; assay: Tested for ability to maintain self-administration after administration of 0.03 mg/kg in monkey 9079 Range (2-24); type: functional, Cercopithecidae
# [37] = system: Monkey; assay: Tested for ability to maintain self-administration after administration of 0.003 mg/kg in monkey 2036 Range (5-9); type: functional, Cercopithecidae
# [38] = system: Monkey; assay: Tested for ability to maintain self-administration after administration of 0.001 mg/kg in monkey 3038 Range (2-5); type: functional, Cercopithecidae
# [39] = system: Monkey; assay: Tested for ability to maintain self-administration after administration of 0.003 mg/kg in monkey 9079 Range (1-6); type: functional, Cercopithecidae
# [40] = system: Monkey; assay: Tested for ability to maintain self-administration after administration of 1 mg/kg in monkey 9079 (0-3); type: functional, Cercopithecidae
# [41] = system: Mus musculus; assay: Antiaggressive anxiolytic activity in the electroshock-induced fighting test in mice (po); Range (9.7-19.3); type: functional
# [42] = species: Mus musculus; assay: Effect on alcohol induced sleep was determined in ethanol potentiation test; Range (26.6-77.9); type: functional
# [43] = system: Mus musculus; assay: Effect on hexobarbital induced sleep was determined in hexobarbital potentiation test (po); Range (36.0-59.6); type: functional
# [44] = system: Mus musculus; assay: Antiaggressive anxiolytic activity in the electroshock-induced fighting test in mice (po); Range (0.9-1.8); type: functional
# [45] = species: Mus musculus; assay: Ataxic activity in mice by rotarod test; Range (89.6-160.6); type: functional
# [46] = system: Rattus norvegicus; assay: Antiaggressive anxiolytic activity in the hexagonal maze test in rat after ip administration of 0.3 mg/kg; type: functional; settings: route intraperitoneal
smiles,measurement,setting,value
O=C1CC2(CCCC2)CC(=O)N1CCCCN1CCN(c2ncccn2)CC1 [BUSPIRONE],ED50,[1],77 mg/kg
same,ED50,[2],14.5 mg/kg
same,Therapeutic index,[3],5.3
same,ED50,[4],62.8 mg/kg
same,ED50,[5],54.5 mg/kg
same,Therapeutic index,[6],0.8
same,Therapeutic index,[7],0.7
COc1ccccc1N1CCN(CC(O)COc2cc(OC)c(OC)c(OC)c2)CC1 (centres undefined),Effect,[8],inactive
same,Effect,[9],inactive
same,Effect,[10],inactive
same,Therapeutic index,[3],86
same,Effect,[11],inactive
same,Effect,[12],inactive
same,Effect,[13],inactive
same,Effect,[14],inactive
same,Therapeutic index,[6],32.5
same,Effect,[15],inactive
same,Effect,[16],inactive
same,Effect,[17],inactive
same,Effect,[18],inactive
same,Therapeutic index,[7],33
same,Effect,[19],inactive
COc1ccccc1N1CCN(CC(O)COc2cc(OC)c(OC)c(OC)c2)CC1 (centres undefined) [ENCIPRAZINE],Effect,[20],4.3
same,Effect,[21],4.3
same,Effect,[22],1.3
same,Effect,[23],2
same,Effect,[24],2.3
same,Effect,[25],7.7
same,Effect,[26],17.7
same,Effect,[27],9
same,Effect,[28],1.7
same,Effect,[29],4
same,Effect,[30],3
same,Effect,[31],2.7
same,Effect,[32],4.3
same,Effect,[33],1
same,Effect,[34],2
same,Effect,[35],0.3
same,Effect,[36],13.7
same,Effect,[37],7
same,Effect,[38],3.5
same,Effect,[39],3
same,Effect,[40],1.3
COc1cc(OCC(O)CN2CCN(c3ccccc3SC)CC2)cc(OC)c1OC.Cl (centres undefined),ED50,[41],14 mg/kg
COc1ccccc1N1CCN(CC(O)COc2cc(OC)c(OC)c(OC)c2)CC1.Cl (centres undefined),ED50,[42],45.5 mg/kg
same,ED50,[43],46.4 mg/kg
same,ED50,[44],1.4 mg/kg
same,ED50,[45],120 mg/kg
same,Prolongation,[46],3.2%
